Reference: US8822505B2, “Azetidine derivatives” (Hoffmann-La Roche Inc., priority 2012, dated 2014)
Structures can show the parent of a compound that is named as a salt.

Columns and labels:
human Cat L = human Cat L (Homo sapiens (Human), UniProt P07711); assay: Cathepsin enzyme inhibition assay (human Cat L); assay type: biochemical; settings: enzyme 1 nM, substrate Z-Val-Val-Arg-AMC 20 μM, pH 6.5
Description: (§1) Cathepsin Enzyme Inhibition Assay
(§2) Enzyme activity is measured by observing the increase in fluorescence intensity caused by cleavage of a peptide substrate containing a fluorophore whose emission is quenched in the intact peptide.
(§3) Assay buffer: 100 mM potassium phosphate pH 6.5, EDTA-Na 5 mM, Triton X-100 0.001%, DTT 5 mM.
(§4) Enzymes (all at 1 nM): human and mouse Cathepsin S, Cat K, Cat B, Cat L.
(§5) Substrate (20 μM): Z-Val-Val-Arg-AMC, except for Cat K which uses Z-Leu-Arg-AMC (both from Bachem).
Excitation 360 nm, Emission 465 nm.
Enzyme is added to the substance dilutions in 96-well microtitre plates and the reaction is started with substrate. Fluorescence emission is measured over 20 minutes, during which time a linear increase is observed in the absence of inhibitor. IC50 are calculated by standard methods.
Inhibition of human Cat S, mouse Cat S, human Cat K, human Cat B, human Cat L and mouse Cat L have been measured separately. The results obtained for human Cat S and L for representative compounds of the invention are expressed in the following table in μM.

human Cat S = human Cat S (Homo sapiens (Human), UniProt P25774); assay: Cathepsin enzyme inhibition assay (human Cat S); assay type: biochemical; settings: enzyme 1 nM, substrate Z-Val-Val-Arg-AMC 20 μM, pH 6.5
Chain of human Cat S (P25774 115-331): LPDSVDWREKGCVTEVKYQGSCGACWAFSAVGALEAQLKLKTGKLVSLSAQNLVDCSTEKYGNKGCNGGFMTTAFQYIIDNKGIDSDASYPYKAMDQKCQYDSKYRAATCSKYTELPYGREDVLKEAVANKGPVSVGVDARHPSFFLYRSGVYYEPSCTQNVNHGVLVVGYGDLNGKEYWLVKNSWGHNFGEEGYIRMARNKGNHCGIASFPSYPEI
Description: as §1, §2, §3, §4, §5
Enzyme is added to the substance dilutions in 96-well microtitre plates and the reaction is started with substrate. […] IC50 are calculated by standard methods.
Inhibition of human Cat S, mouse Cat S, human Cat K, human Cat B, human Cat L and mouse Cat L have been measured separately.

Chain of human Cat L (P07711 114-333): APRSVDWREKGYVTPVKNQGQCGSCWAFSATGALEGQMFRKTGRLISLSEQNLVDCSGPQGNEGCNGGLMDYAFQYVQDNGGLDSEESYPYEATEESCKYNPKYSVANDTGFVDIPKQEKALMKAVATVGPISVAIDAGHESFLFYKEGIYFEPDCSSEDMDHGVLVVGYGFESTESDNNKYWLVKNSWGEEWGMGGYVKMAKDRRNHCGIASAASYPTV

Row | Structure (SMILES) | IC50 (human Cat L) | IC50 (human Cat S)
1 | Cc1cc(-c2ccc(S(=O)(=O)[C@@H]3C[C@@H](C(=O)NC4(C#N)CC4)N(C(=O)C4(c5ncc(Br)cc5F)CCN4)C3)c(Cl)c2)ccn1 (stereo partly drawn) [Example 44, (2S,4R)-1-[2-(5-Bromo-3-fluoro-pyridin-2-yl)-azetidine-2-carbonyl]-4-[2-chloro-4-(2-methyl-pyridin-4-yl)-benzenesulfonyl]-pyrrolidine-2-carboxylic acid (1-cyano-cyclopropyl)-amide hydrochloride] | 70.6 nM | 2.08 nM
2 | Cn1cc(-c2ccc(S(=O)(=O)[C@@H]3C[C@@H](C(=O)NC4(C#N)CC4)N(C(=O)C4(c5ncc(Br)cc5F)CCN4)C3)c(Cl)c2)cn1 (stereo partly drawn) [Example 48, (2S,4R)-1-[2-(5-Bromo-3-fluoro-pyridin-2-yl)-azetidine-2-carbonyl]-4-[2-chloro-4-(1-methyl-1H-pyrazol-4-yl)-benzenesulfonyl]-pyrrolidine-2-carboxylic acid (1-cyano-cyclopropyl)-amide hydrochloride] | 98.9 nM | 1.85 nM
3 | C[C@H](Oc1ccc(S(=O)(=O)[C@@H]2C[C@@H](C(=O)NC3(C#N)CC3)N(C(=O)C3(c4ncc(Br)cc4F)CN(CC(F)F)C3)C2)c(Cl)c1)C(F)(F)F [Example 49, (2S,4R)-1-[3-(5-Bromo-3-fluoro-pyridin-2-yl)-1-(2,2-difluoro-ethyl)-azetidine-3-carbonyl]-4-[2-chloro-4-((S)-2,2,2-trifluoro-1-methyl-ethoxy)-benzenesulfonyl]-pyrrolidine-2-carboxylic acid (1-cyano-cyclopropyl)-amide] | 5 nM | 1 nM
4 | C[C@H](Oc1ccc(S(=O)(=O)[C@@H]2C[C@@H](C(=O)NC3(C#N)CC3)N(C(=O)C3(c4ncc(Br)cc4F)CN(C=O)C3)C2)c(Cl)c1)C(F)(F)F [Example 50, (2S,4R)-1-[3-(5-Bromo-3-fluoro-pyridin-2-yl)-1-formyl-azetidine-3-carbonyl]-4-[2-chloro-4-((S)-2,2,2-trifluoro-1-methyl-ethoxy)-benzenesulfonyl]-pyrrolidine-2-carboxylic acid (1-cyano-cyclopropyl)-amide] | 5 nM | 0.9 nM
5 | C[C@H](Oc1ccc(S(=O)(=O)[C@@H]2C[C@@H](C(=O)NC3(C#N)CC3)N(C(=O)C3(c4ncc(Br)cc4F)CN(CC(F)(F)F)C3)C2)c(Cl)c1)C(F)(F)F [Example 52, (2S,4R)-1-[3-(5-Bromo-3-fluoro-pyridin-2-yl)-1-(2,2,2-trifluoro-ethyl)-azetidine-3-carbonyl]-4-[2-chloro-4-((S)-2,2,2-trifluoro-1-methyl-ethoxy)-benzenesulfonyl]-pyrrolidine-2-carboxylic acid (1-cyano-cyclopropyl)-amide] | 6 nM | 1 nM

The remaining compounds from weak to strong by IC50 (human Cat L), led by results:

Row | IC50 (human Cat L) | IC50 (human Cat S) | Structure (SMILES)
6 | 625 nM | 0.965 nM | Cn1cc(-c2ccc(S(=O)(=O)[C@@H]3C[C@@H](C(=O)NC4(C#N)CC4)N(C(=O)C4(c5ncc(Cl)cc5F)CCN4C(=O)OC(C)(C)C)C3)c(Cl)c2)cn1 (stereo partly drawn) [Example 45, tert-butyl 2-(5-chloro-3-fluoropyridin-2-yl)-2-((2S,4R)-4-(2-chloro-4-(1-methyl-1H-pyrazol-4-yl)phenylsulfonyl)-2-(1-cyanocyclopropylcarbamoyl)pyrrolidine-1-carbonyl)azetidine-1-carboxylate]
7 | 82.1 nM | 0.791 nM | Cn1cc(-c2ccc(S(=O)(=O)[C@@H]3C[C@@H](C(=O)NC4(C#N)CC4)N(C(=O)C4(c5ncc(Cl)cc5F)CCN4)C3)c(Cl)c2)cn1 (stereo partly drawn) [Example 47, (2S,4R)-1-[2-(5-Chloro-3-fluoro-pyridin-2-yl)-azetidine-2-carbonyl]-4-[2-chloro-4-(1-methyl-1H-pyrazol-4-yl)-benzenesulfonyl]-pyrrolidine-2-carboxylic acid (1-cyano-cyclopropyl)-amide hydrochloride]
8 | 7 nM | 2 nM | COC(=O)N1CC(C(=O)N2C[C@H](S(=O)(=O)c3ccc(O[C@@H](C)C(F)(F)F)cc3Cl)C[C@H]2C(=O)NC2(C#N)CC2)(c2ncc(Br)cc2F)C1 [Example 51, 3-(5-Bromo-3-fluoro-pyridin-2-yl)-3-[(2S,4R)-4-[2-chloro-4-((S)-2,2,2-trifluoro-1-methyl-ethoxy)-benzenesulfonyl]-2-(1-cyano-cyclopropylcarbamoyl)-pyrrolidine-1-carbonyl]-azetidine-1-carboxylic acid methyl ester]
